Laboratory results taken from publication PMC8260868, “Protocol for improving diffraction quality of leucyl-tRNA synthetase 1 with methylation and post-crystallization soaking and cooling in cryoprotectants” (STAR Protocols, 2021).

Legend:
Format in all cases: binding
[1] = biological target: T1, LARS1 (leucyl-tRNA synthetase 1) (Homo sapiens, UniProt Q9P2J5); experiment: X-ray crystallography, co-crystal; conditions: 2 mM leucine; bis-tris pH 6.5, 1.6 M ammonium sulfate; LARS1-Leu^syn, synthetic site
T1 construct: full length 1-1176, His-tagged in pQE-80L (BamHI/HindIII), E. coli Rosetta (DE3); tag removal not mentioned; one molecule in the asymmetric unit; lysines reductively methylated in LARS1-methyl (6KR7)

[2] = biological target: T1, LARS1 (leucyl-tRNA synthetase 1); experiment: microscale thermophoresis (Monolith NT.[…], RED-tris-NTA labelled His-LARS1)
[3] = biological target: T1, LARS1 (leucyl-tRNA synthetase 1); experiment: intrinsic-fluorescence DSF (Tycho NT.[…]); conditions: 2, 5, 10, 20 mM leucine; Tris-HCl pH 7.5, 150 mM NaCl, 5 mM MgCl2, 2 mM DTT, 0.1% Tween-20; 1 mg/mL LARS1

T1 sequence (Q9P2J5 whole entry): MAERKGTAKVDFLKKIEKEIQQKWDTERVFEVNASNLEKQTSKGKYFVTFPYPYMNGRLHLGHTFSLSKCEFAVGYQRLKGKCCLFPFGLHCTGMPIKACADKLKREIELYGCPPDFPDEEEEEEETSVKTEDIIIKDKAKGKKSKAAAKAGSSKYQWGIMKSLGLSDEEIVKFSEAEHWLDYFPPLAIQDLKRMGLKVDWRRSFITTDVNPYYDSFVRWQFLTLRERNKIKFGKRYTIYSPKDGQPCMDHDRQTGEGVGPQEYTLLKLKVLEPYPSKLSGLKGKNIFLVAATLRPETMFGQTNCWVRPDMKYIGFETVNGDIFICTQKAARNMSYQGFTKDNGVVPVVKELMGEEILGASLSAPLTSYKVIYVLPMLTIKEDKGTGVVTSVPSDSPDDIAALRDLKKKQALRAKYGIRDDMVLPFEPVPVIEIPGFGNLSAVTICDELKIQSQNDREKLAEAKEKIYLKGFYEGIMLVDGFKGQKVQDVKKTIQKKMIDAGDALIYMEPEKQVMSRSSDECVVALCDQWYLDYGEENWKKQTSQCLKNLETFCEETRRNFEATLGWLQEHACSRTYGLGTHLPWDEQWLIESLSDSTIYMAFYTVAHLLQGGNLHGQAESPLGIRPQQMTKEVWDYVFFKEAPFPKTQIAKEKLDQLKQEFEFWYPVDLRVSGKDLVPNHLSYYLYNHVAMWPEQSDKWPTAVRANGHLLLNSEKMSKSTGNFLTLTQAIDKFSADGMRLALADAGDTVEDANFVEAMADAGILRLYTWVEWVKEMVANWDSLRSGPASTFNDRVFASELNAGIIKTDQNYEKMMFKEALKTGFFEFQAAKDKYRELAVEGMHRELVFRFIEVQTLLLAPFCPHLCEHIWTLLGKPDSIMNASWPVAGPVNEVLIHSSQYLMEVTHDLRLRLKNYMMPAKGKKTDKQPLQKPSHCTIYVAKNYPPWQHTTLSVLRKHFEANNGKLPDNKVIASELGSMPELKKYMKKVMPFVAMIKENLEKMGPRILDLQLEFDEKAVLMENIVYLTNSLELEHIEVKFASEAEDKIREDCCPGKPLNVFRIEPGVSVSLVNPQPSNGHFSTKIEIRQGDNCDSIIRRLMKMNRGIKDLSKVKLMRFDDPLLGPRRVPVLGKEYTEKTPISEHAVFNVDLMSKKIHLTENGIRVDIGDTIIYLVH

Kd [2]: 119 ± 63.1 µM
Compound: CC(C)C[C@H](N)C(=O)O [L-Leucine]
X-ray crystallography, co-crystal [1]: prepare LARS1-Leu^syn crystals subsequently deposited in PDB with the code 6KQY
Ti [3]: LARS1 was incubated with leucine and the inflection temperature (Ti) was measured
